From patent publication US20170320848A1, “COMPOUNDS FOR USE IN ANTHELMINTHIC TREATMENT” (Bayer Animal Health GMBH, priority 2014, published 2017)
Read-outs that look alike come from different tables or passages of the source.

Legend:
[1] = test system: Meloidogyne incognita; assay: Meloidogyne incognita assay (MELGIN), gall formation on salad seedlings; assay type: in vivo; conditions: application rate 20 ppm, after 14 days
Procedure: Meloidogyne Incognita—Assay (MELGIN)
Solvent: 125.0 parts by weight of acetone
To produce a suitable preparation, 1 part by weight of active compound is mixed with the stated amount of solvent, and the concentrate is diluted with water to the desired concentration.
Vessels are filled with sand, a solution of the active ingredient, a suspension containing eggs and larvae of the southern root-knot nematode (Meloidogyne incognita) and salad seeds. The salad seeds germinate and the seedlings grow. Galls develop in the roots.
After 14 days the nematicidal activity is determined on the basis of the percentage of gall formation. 100% means no galls were found and 0% means the number of galls found on the roots of the treated plants was equal to that in untreated control plants.

[2] = Measurement of LogP values by HPLC on reversed phase columns (EEC directive 79/831 Annex V.A8); assay type: physicochemical; conditions: for chromatographic logP: reversed phase HPLC columns
[3] = test system: Cooperia curticei; assay: Cooperia curticei assay (COOPCU), larval mortality; assay type: cell-based; conditions: application rate 20 ppm, after 5 days; for mortality at 20 ppm: Cooperia curticei, 120 h, read-out: activity (percentage of larval mortality)
Procedure: Cooperia Curticei—Assay (COOPCU)
Solvent: dimethyl sulfoxide
To produce a suitable preparation, 10 mg of active compound are dissolved in 0.5 ml solvent, and the concentrate is diluted with “Ringer's solution” to the desired concentration.
Approximately 40 nematode larvae (Cooperia curticei) are transferred into a test tube containing the compound solution.
After 5 days percentage of larval mortality is recorded. 100% efficacy means all larvae are killed; 0% efficacy means no larvae are killed.

[4] = acidic range, 0.1% formic acid in water and acetonitrile as eluent
[5] = acidic range, 0.1% formic acid in water and acetonitrile as eluent, read-out: logP (HCOOH)[a]

| SMILES | nematicidal activity (percentage of gall formation) [1] [%] | logP (HCOOH)[a] [2, 4] | other results |
| --- | --- | --- | --- |
| Cc1cc(-c2ccc(Cl)c(F)c2)ccc1C(F)(F)CNC(=O)c1ccccc1C(F)(F)F [Example 125] | 100 | 4.61 | – |
| CNc1ccc(-c2ccc(C(F)(F)CNC(=O)c3ccccc3C(F)(F)F)c(Cl)c2)cc1 [Example 29] | – | – | mortality at 20 ppm [3]: 80%; chromatographic logP [2, 5]: 3.59 |
| O=C(NCC(F)(F)c1ccc(-c2ccc(F)cc2)cc1Cl)c1cccnc1I [Example 64] | 100 | 3.56 | – |
| O=C(NCC(F)(F)c1ccc(-c2cc(F)cc(F)c2)cc1F)c1ccccc1C(F)(F)F [Example 101] | 100 | – | – |
| Cc1cc(-c2ccc(F)cc2F)ccc1C(F)(F)CNC(=O)c1ccccc1C(F)(F)F [Example 119] | 100 | 4.15 | – |
| O=C(NCC(F)(F)c1ccc(-c2ccc(Cl)cc2)cc1C(F)(F)F)c1nccnc1C(F)(F)F [Example 53] | 100 | – | – |
| Cc1cc(-c2cccc(F)c2F)ccc1C(F)(F)CNC(=O)c1ccccc1C(F)(F)F [Example 127] | 90 | 4.1 | – |
| O=C(NCC(F)(F)c1ccc(-c2cccc(C(F)F)c2)cc1Cl)c1ccccc1C(F)(F)F [Example 43] | 100 | 4.03 | – |
| Cc1cc(-c2cc(F)c(Cl)c(F)c2)ccc1C(F)(F)CNC(=O)c1ccccc1C(F)(F)F [Example 126] | 90 | 4.77 | – |
| N#Cc1ccc(-c2ccc(C(F)(F)CNC(=O)c3ccccc3C(F)(F)F)c(Cl)c2)cc1Cl [Example 105] | 100 | 4.02 | – |
| O=C(NCC(F)(F)c1c(F)cc(-c2cc(F)c(F)c(F)c2)cc1F)c1ccccc1C(F)(F)F [Example 108] | 90 | 4.2 | – |
| O=C(NCC(F)(F)c1ccc(-c2cc(F)c(F)c(F)c2)cc1Cl)c1ncccc1C(F)(F)F [Example 112] | 100 | 4.23 | – |
| O=C(NCC(F)(F)c1ccc(-c2ccc(N3CCCC3)cc2)cc1Cl)c1ccccc1C(F)(F)F [Example 78] | – | 5.08 | activity (percentage of larval mortality) [3]: 90% |
| Cc1cc(-c2ccc(Cl)c(Cl)c2)ccc1C(F)(F)CNC(=O)c1ccccc1C(F)(F)F [Example 122] | 100 | 4.98 | – |
| O=C(NCC(F)(F)c1ccc(-c2cccc(OC(F)F)c2)cc1Cl)c1ccccc1C(F)(F)F [Example 65] | 100 | 4.08 | – |
| Cc1cc(-c2ccc(SC(F)(F)F)cc2)ccc1C(F)(F)CNC(=O)c1ccccc1C(F)(F)F [Example 50] | 100 | 5.08 | – |
| N#Cc1cc(-c2ccc(C(F)(F)CNC(=O)c3ccccc3C(F)(F)F)c(Cl)c2)ccc1Cl [Example 95] | 100 | 4.07 | – |
| COc1cc(-c2ccc(C(F)(F)F)cc2)ccc1C(F)(F)CNC(=O)c1ccccc1C(F)(F)F [Example 87] | – | 4.33 | activity (percentage of larval mortality) [3]: 90% |
| Cc1cc(-c2ccc(C#N)cc2)ccc1C(F)(F)CNC(=O)c1ccccc1C(F)(F)F [Example 49] | 100 | 3.7 | – |
| O=C(NCC(F)(F)c1ccc(-c2cccc(Cl)c2)cc1Cl)c1ccccc1C(F)(F)F [Example 69] | 100 | 4.6 | – |
| COc1ccc(-c2ccc(C(F)(F)CNC(=O)c3ccccc3C(F)(F)F)c(F)c2)cc1 [Example 6] | – | – | mortality at 20 ppm [3]: 80% |
| COc1cc(-c2ccc(C(F)F)cc2)ccc1C(F)(F)CNC(=O)c1ccccc1C(F)(F)F [Example 91] | – | 3.81 | activity (percentage of larval mortality) [3]: 80% |
| CN(C)c1ccc(-c2ccc(C(F)(F)CNC(=O)c3ccccc3C(F)(F)F)c(Cl)c2)cc1 [Example 28] | – | – | mortality at 20 ppm [3]: 80%; chromatographic logP [2, 5]: 4.28 |
| Cc1cc(-c2ccc(F)c(Cl)c2)ccc1C(F)(F)CNC(=O)c1ccccc1C(F)(F)F [Example 124] | 100 | 4.56 | – |
| O=C(NCC(F)(F)c1ccc(-c2cc(F)c(F)c(F)c2)cc1Cl)c1c(F)cccc1F [Example 117] | 100 | 4.05 | – |

| SMILES | nematicidal activity (percentage of gall formation) [1] [%] | logP (HCOOH)[a] [2, 4] | other results |
| --- | --- | --- | --- |
| N#Cc1cc(-c2ccc(F)cc2)ccc1C(F)(F)CNC(=O)c1ccccc1C(F)(F)F [Example 74] | – | 3.63 | activity (percentage of larval mortality) [3]: 90% |
| O=C(NCC(F)(F)c1ccc(-c2cc(F)c(F)c(F)c2)cc1Cl)c1ccccc1I [Example 114] | – | 4.34 | – |
| O=C(NCC(F)(F)c1ccc(-c2cc(F)c(F)c(F)c2)cc1Cl)c1nccnc1C(F)(F)F [Example 111] | – | 4.05 | – |
| O=C(NCC(F)(F)c1ccc(-c2ccc(F)cc2)cc1Cl)c1ccccc1Br [Example 58] | – | 4.05 | – |
| Cc1cc(-c2ccc(C(F)(F)F)cc2)ccc1C(F)(F)CNC(=O)c1ccccc1C(F)(F)F [Example 88] | – | 4.62 | – |
| O=C(NCC(F)(F)c1ccc(-c2ccc3c(c2)OC(F)(F)O3)cc1Cl)c1ccccc1C(F)(F)F [Example 71] | – | 4.57 | – |
| N#Cc1cc(-c2ccc(C(F)F)cc2)ccc1C(F)(F)CNC(=O)c1ccccc1C(F)(F)F [Example 89] | – | 3.59 | – |
| N#Cc1cc(-c2ccc(SC(F)(F)F)cc2)ccc1C(F)(F)CNC(=O)c1ccccc1C(F)(F)F [Example 83] | – | 4.5 | – |
| O=C(NCC(F)(F)c1ccc(-c2cccc(C(F)(F)F)c2)cc1Cl)c1ccccc1C(F)(F)F [Example 67] | – | 4.55 | – |
| CC(=O)Nc1ccc(-c2ccc(C(F)(F)CNC(=O)c3ccccc3C(F)(F)F)c(Cl)c2)cc1 [Example 30] | – | – | chromatographic logP [2, 5]: 2.93 |
| O=C(NCC(F)(F)c1c(F)cc(-c2ccc(OC(F)(F)F)cc2)cc1F)c1ccccc1C(F)(F)F [Example 48] | – | 4.56 | – |
| O=C(NCC(F)(F)c1ccc(-c2cc(F)c(OC(F)F)c(F)c2)cc1Cl)c1ccccc1C(F)(F)F [Example 66] | – | 4.20 | – |
| COc1cc(-c2cc(F)c(F)c(F)c2)ccc1C(F)(F)CNC(=O)c1ccccc1C(F)(F)F [Example 118] | – | 4.23 | – |
| N#Cc1cc(-c2cccc(C(F)F)c2)ccc1C(F)(F)CNC(=O)c1ccccc1C(F)(F)F [Example 79] | – | 3.59 | activity (percentage of larval mortality) [3]: 80% |
| CN(C)c1ccc(-c2ccc(C(F)(F)CNC(=O)c3ccccc3C(F)(F)F)c(C(F)(F)F)c2)cc1 [Example 10] | – | – | mortality at 20 ppm [3]: 80% |
| COc1cc(-c2ccc(C#N)cc2)ccc1C(F)(F)CNC(=O)c1ccccc1C(F)(F)F [Example 51] | – | 3.43 | activity (percentage of larval mortality) [3]: 90% |
| O=C(NCC(F)(F)c1ccc(-c2ccc(C(F)(F)F)cc2)cc1Cl)c1ccccc1C(F)(F)F [Example 41] | – | 4.56 | – |
| O=C(NCC(F)(F)c1ccc(-c2cc(F)c(F)c(F)c2)cc1Cl)c1ccccc1Br [Example 116] | – | 4.28 | – |
| O=C(NCC(F)(F)c1ccc(-c2ccc(N3CCOCC3)c(F)c2)cc1Cl)c1ccccc1C(F)(F)F [Example 113] | – | 4.05 | – |
| CC(=O)N1CCN(c2ccc(-c3ccc(C(F)(F)CNC(=O)c4ccccc4C(F)(F)F)c(Cl)c3)cc2)CC1 [Example 104] | – | 3.17 | – |
| O=C(NCC(F)(F)c1ccc(-c2ccc(F)cc2)cc1C(F)(F)F)c1nccnc1C(F)(F)F [Example 52] | 100 | – | – |
| O=C(NCC(F)(F)c1ccc(-c2ccc(N3CCOCC3)cc2)cc1Cl)c1ccccc1C(F)(F)F [Example 75] | – | 3.83 | – |
| N#Cc1cc(-c2ccc(C(F)(F)CNC(=O)c3ccccc3C(F)(F)F)c(Cl)c2)ccc1F [Example 96] | – | 3.81 | – |
| NCC(F)(F)c1ccc(-c2ccc(F)cc2)cc1Cl [Example VII-1, 2-[2-chloro-4-(4-fluorophenyl)phenyl]-2,2-difluoro-ethanamine] | – | – | chromatographic logP [2, 5]: 1.35; chromatographic logP ([2]; neutral range, 0.001 molar ammonium acetate solution in water and acetonitrile as eluent, read-out: LogP[b]): 3.1 |
